Target: β2-adrenergic receptor (β2AR) (Homo sapiens, UniProt P07550)
Assay: radioligand saturation binding on membranes

Sequence of β2-adrenergic receptor (β2AR) (P07550 whole entry): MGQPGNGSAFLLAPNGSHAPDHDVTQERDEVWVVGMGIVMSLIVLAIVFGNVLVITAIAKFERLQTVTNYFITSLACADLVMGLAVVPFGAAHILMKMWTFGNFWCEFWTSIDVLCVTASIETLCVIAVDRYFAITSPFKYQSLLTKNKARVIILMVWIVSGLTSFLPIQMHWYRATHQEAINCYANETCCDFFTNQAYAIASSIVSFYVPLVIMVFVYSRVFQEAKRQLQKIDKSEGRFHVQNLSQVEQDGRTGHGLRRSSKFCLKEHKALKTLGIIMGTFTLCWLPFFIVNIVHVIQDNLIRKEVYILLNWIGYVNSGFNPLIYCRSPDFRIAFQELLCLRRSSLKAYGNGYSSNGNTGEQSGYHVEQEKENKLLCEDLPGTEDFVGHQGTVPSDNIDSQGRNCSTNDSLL

Kd: 0.42 ± 0.1 nM
Compound: CCCc1ccccc1OCC(O)CNC(C)C (stereo not shown) [[3H]dihydroalprenolol]

— PMC317295 (BMC Pharmacology, 2003)
